Earlier results, collected in patent publication US11766438B2, “Pharmaceutical compositions of tofacitinib for oral administration” (Slayback Pharma LLC, priority 2020, dated 2023).
Where two headings read alike, the source gives them in different places.

C[C@@H]1CCN(C(=O)CC#N)C[C@@H]1N(C)c1ncnc2[nH]ccc12.O=C(O)CC(O)(CC(=O)O)C(=O)O [Tofacitinib citrate, (3R,4R)-4-methyl-3-(methyl-7H-pyrrolo[2,3-d]pyrimidin-4-ylamino)-β-oxo-1-piperidinepropanenitrile, 2-hydroxy-1,2,3-propanetricarboxylate (1:1)]
Solubility (aqueous solution of pH 1 to 3.9): 3480 to 28000 µg/mL
Solubility (aqueous solution of pH 4.53 to 8): 200 to 590 µg/mL
